Measurements as given in BigSolDB 2.1.

O=C(O)c1ccccc1Nc1ccccc1
solubility (mole fraction)
Details	in ethanol	in methanol	in tert-butanol
283.15 K	0.0101	0.00519	–
285.65 K	0.0107	0.00556	–
288.15 K	0.0112	0.00606	–
290.65 K	0.0112	0.00653	–
293.15 K	0.0123	0.00701	–
295.65 K	0.0131	0.0073	–
298.15 K	0.0136	0.00796	0.0189
300.65 K	0.0144	0.00837	0.02
303.15 K	0.0154	0.00883	0.0225
305.65 K	0.0163	0.00916	0.0256
308.15 K	0.0175	0.00971	0.0279
310.65 K	0.0187	0.0103	0.0298
313.15 K	0.02	0.0117	0.0319
315.65 K	0.0221	0.0134	0.0353
318.15 K	0.0242	0.0156	0.0389
